The source of these data is patent US11324680B2, “Topical compositions” (priority 2017, dated 2022).

The assay deals with Propionibacterium acnes. The assay can be described thus: Antimicrobial efficacy in analogy to challenge test NF EN ISO11930, protection against acne. The class given is cell-based. As to conditions: 24 h; for Log reduction: Propionibacterium acnes; for Propionibacterium acnes colony count: 22° C., initial contamination 310000 cfu/ml.

Procedure: The antimicrobial efficacy is assessed in analogy to the regulatory challenge test method (NF EN ISO11930). Thus, solutions of the respective active(s) in ethanol are prepared and further dissolved in physiological serum with 0.85 wt.-% NaCl in the concentrations as outlined in table 1 under sterile conditions. The samples were solubilized in physiological serum supplemented with 1 wt.-% ethanol. A control was prepared under sterile condition based on a serum with 0.85 wt.-% NaCl and 1 wt.-% ethanol (C1). […] The wells are contaminated resulting in the initial contamination as outlined in table 1. After the contamination, each well was thoroughly mixed to ensure a homogeneous distribution of bacteria. Then each plate was incubated at 22° C. for 24 h. The counting of the (remaining) population is carried out 24 h after contamination.

For the molecule `O=C(CO)[C@H](O)CO` (racemic) [erythrulose], for the setting “single active at 0.1 wt.-%”, the Log reduction stood at 2 and the “Propionibacterium acnes colony count” value is listed as 3300 cfu/ml. Also, for the setting “single active at 0.3 wt.-%”, the Log reduction is recorded as 3.5 and the “Propionibacterium acnes colony count” value was found to be 100 cfu/ml.

Consider `CCCCCCCC(=O)OCC(O)CO` (centres unmarked) [glyceryl caprylate, Glyceryl caprylate], for which, where the note is “single active at 0.2 wt.-%”, the Log reduction was found to be 3 and the “Propionibacterium acnes colony count” value is reported as 260 cfu/ml. For the same molecule, for the setting “single active at 0.3 wt.-%”, the Log reduction was 4.5 and the “Propionibacterium acnes colony count” value worked out at 10 cfu/ml.
